In patent US20240025862A1, “SUBSTITUTED N-PHENYLURACILS AND SALTS THEREOF, AND USE THEREOF AS HERBICIDAL ACTIVE SUBSTANCES” (Bayer Aktiengesellschaft, priority 2020, published 2024):

Assays:
Format in all cases: in vivo
[1] = system: Abutilon theophrasti (ABUTH); assay: Post-emergence herbicidal action, greenhouse pot test; settings: rated visually after about 3 weeks vs untreated controls, 100% = plants have died
Experimental: (§1) Seeds of monocotyledonous and dicotyledonous weeds and crop plants were placed in sandy loam in plastic or wood-fiber pots, covered with soil and cultivated in a greenhouse under controlled growth conditions. 2 to 3 weeks after sowing, the test plants were treated at the one-leaf stage. The compounds of the invention, formulated in the form of wettable powders (WP) or as emulsion concentrates (EC), were then sprayed onto the green parts of the plants as aqueous suspension or emulsion with addition of 0.5% additive at a water application rate of 600 l/ha (converted). After the test plants had been kept in the greenhouse under optimum growth conditions for about 3 weeks, the activity of the preparations was rated visually in comparison to untreated controls. For example, 100% activity=the plants have died, 0% activity=like control plants.
(§2) Tables A1 to A14 below show the effects of selected compounds of the general formula (I) according to Tables I.1 to I.33 on various harmful plants and at an application rate corresponding to 20 g/ha and less, which were obtained by the experimental method specified above. The appendices “a”, “b” and “c” give differentiation by different dosage with otherwise the same harmful plants tested.

[2] = system: Amaranthus retroflexus (AMARE); assay: as above; settings: rated visually after about 3 weeks vs untreated controls, 100% = plants have died
Experimental: as §1, §2

[3] = system: Pharbitis purpurea (PHBPU); assay: as above
Experimental: as §1, §2

[4] = system: Polygonum convolvulus (POLCO); assay: as above
Experimental: as §1, §2

Veronica persica (VERPE) = assay: as above
Experimental: as §1, §2

Viola tricolor (VIOTR) = assay: as above
Experimental: as §1, §2

[5] = system: Alopecurus myosuroides (ALOMY); assay: Post-emergence herbicidal action, greenhouse pot test (also comparative test C); settings: rated visually after about 3 weeks vs untreated controls, 100% = plants have died
Experimental: as §1, §2
(§3) C. Comparative Herbicidal Action and Crop Plant Compatibility of Two Inventive Compounds (I.7-1 and I.7-115) with a Compound of Similar Structure Known from the Literature (WO2002/098227, a-17 and EP1106607, 3-14) in Post-Emergence Treatment.
(§4) Tables C1-C4 below show the effects of two inventive compounds (I.7-1 and I.7-115) together with a compound of similar structure known from the literature (a-17 in WO2002/098227, and 3-14 in EP1106607) in different crop plants at an application rate corresponding to 5 g/ha or less, which have been obtained by the aforementioned experimental procedure.

[6] = system: Echinochloa crus-galli (ECHCG); assay: as above
Experimental: as §1, §2, §3, §4

[7] = system: Matricaria inodora (MATIN); assay: as above
Experimental: as §1, §2, §3, §4

Setaria viridis (SETVI) = assay: as above; settings: for Post-emergence action against SETVI: 20 g/ha
Experimental: as §1, §2, §3, §4

[8] = system: Triticum aestivum (TRZAS); assay: Post-emergence crop plant compatibility, greenhouse pot test; settings: vs untreated controls
Experimental: as §1
(§5) The observed effects on selected crop plants are reported here in comparison to the untreated controls (values in %). The appendices “a”, “b” and “c” give differentiation by different dosage with otherwise the same crop plants tested.

Zea mays (ZEAMX) = assay: as above; settings: 1.25 g/ha, vs untreated controls
Experimental: as §1, §5

Oryza sativa (ORYSA) = assay: Post-emergence crop plant compatibility, greenhouse pot test (also comparative test C); settings: for Post-emergence action against ORYSA (crop plant compatibility): vs untreated controls
Experimental: as §1, §5, §3

Avena fatua (AVEFA) = assay: Post-emergence herbicidal action, greenhouse pot test; settings: 20 g/ha, rated visually after about 3 weeks vs untreated controls, 100% = plants have died
Experimental: as §1, §2

Row | Structure (SMILES) | Post-emergence action at 1.25 g/ha against ABUTH in % [1] | Post-emergence action at 5 g/ha against ABUTH in % [1] | Post-emergence action at 20 g/ha against ABUTH in % [1] | Post-emergence action at 5 g/ha against AMARE in % [2] | Post-emergence action at 20 g/ha against AMARE in % [2] | Post-emergence action against PHBPU in % ([3]; dosage 5 g/ha) | Post-emergence action against PHBPU in % ([3]; dosage 20 g/ha) | Post-emergence action against POLCO in % ([4]; dosage 5 g/ha) | Post-emergence action against POLCO in % ([4]; dosage 20 g/ha) | Post-emergence action against VERPE (Veronica persica (VERPE); 1.25 g/ha) | Post-emergence action against VERPE (Veronica persica (VERPE); 5 g/ha) | Post-emergence action against VERPE (Veronica persica (VERPE); 20 g/ha) | Post-emergence action against VIOTR (Viola tricolor (VIOTR); 1.25 g/ha) | Post-emergence action against VIOTR (Viola tricolor (VIOTR); 5 g/ha) | Post-emergence action against VIOTR (Viola tricolor (VIOTR); 20 g/ha) | Post-emergence action at 20 g/ha against ALOMY in % [5] | Post-emergence action against ECHCG in % ([6]; dosage 5 g/ha) | Post-emergence action against ECHCG in % ([6]; dosage 20 g/ha) | Post-emergence action against MATIN in % ([7]; dosage 20 g/ha) | Post-emergence action against SETVI (Setaria viridis (SETVI)) | also measured
1 | Cn1c(C(F)(F)F)cc(=O)n(-c2cc(Oc3ccccc3OCC(=O)OCCC[N+](=O)[O-])c(Cl)cc2F)c1=O [I.7-339] | 90% | 100% | 100% | 100% | 100% | 100% | 100% | 100% | 100% | 80% | 100% | 100% | 100% | 100% | 100% | 100% | 100% | 100% | 100% | 100% | Post-emergence action at 1.25 g/ha against AMARE in % [2]: 100%; Post-emergence action against PHBPU in % ([3]; dosage 1.25 g/ha): 100%; Post-emergence action at 5 g/ha against ALOMY in % [5]: 100%; Post-emergence action against MATIN in % ([7]; dosage 5 g/ha): 100%; Post-emergence action against SETVI in % (Setaria viridis (SETVI); dosage 1.25 g/ha): 100%; Post-emergence action against SETVI in % (Setaria viridis (SETVI); dosage 5 g/ha): 100%; Post-emergence action against TRZAS (crop plant compatibility) ([8]; 1.25 g/ha): 0%; Post-emergence action against TRZAS (crop plant compatibility) ([8]; 5 g/ha): 20%; Post-emergence action against ZEAMX (crop plant compatibility) (Zea mays (ZEAMX)): 20%; Post-emergence action against ORYSA (crop plant compatibility) (Oryza sativa (ORYSA); 1.25 g/ha): 0%; Post-emergence action against ORYSA (crop plant compatibility) (Oryza sativa (ORYSA); 5 g/ha): 10%
2 | COCCOCCOC(=O)COc1ccccc1Oc1cc(-n2c(=O)cc(C(F)(F)F)n(C)c2=O)c(F)cc1Br [I.8-23] | 100% | 100% | 100% | 100% | 100% | 100% | 100% | 100% | 100% | 80% | 100% | 100% | 100% | 100% | 100% | 100% | 100% | 100% | 100% | 100% | Post-emergence action at 1.25 g/ha against AMARE in % [2]: 100%; Post-emergence action at 20 g/ha against AVEFA in % (Avena fatua (AVEFA)): 80%; Post-emergence action against PHBPU in % ([3]; dosage 1.25 g/ha): 100%; Post-emergence action at 5 g/ha against ALOMY in % [5]: 80%; Post-emergence action against MATIN in % ([7]; dosage 5 g/ha): 100%; Post-emergence action against SETVI in % (Setaria viridis (SETVI); dosage 1.25 g/ha): 100%; Post-emergence action against SETVI in % (Setaria viridis (SETVI); dosage 5 g/ha): 100%; Post-emergence action against TRZAS (crop plant compatibility) ([8]; 1.25 g/ha): 10%; Post-emergence action against TRZAS (crop plant compatibility) ([8]; 5 g/ha): 20%; Post-emergence action against ORYSA (crop plant compatibility) (Oryza sativa (ORYSA); 1.25 g/ha): 0%; Post-emergence action against ORYSA (crop plant compatibility) (Oryza sativa (ORYSA); 5 g/ha): 0%; Post-emergence action against ORYSA in % (Oryza sativa (ORYSA); 20 g/ha, crop plant compatibility): 20%
3 | Cn1c(C(F)(F)F)cc(=O)n(-c2cc(Oc3c(F)cccc3OCC(=O)OCc3ccccn3)c(Cl)cc2F)c1=O [I.19-276] | 100% | 100% | 100% | 100% | 100% | 100% | 100% | 100% | 100% | 100% | 100% | 100% | 100% | 100% | 100% | 90% | 100% | 100% | 100% | 100% | Post-emergence action at 1.25 g/ha against AMARE in % [2]: 100%; Post-emergence action against MATIN in % ([7]; dosage 5 g/ha): 100%; Post-emergence action against SETVI in % (Setaria viridis (SETVI); dosage 1.25 g/ha): 100%; Post-emergence action against SETVI in % (Setaria viridis (SETVI); dosage 5 g/ha): 100%; Post-emergence action against TRZAS (crop plant compatibility) ([8]; 1.25 g/ha): 20%; Post-emergence action against ZEAMX (crop plant compatibility) (Zea mays (ZEAMX)): 20%; Post-emergence action against ORYSA (crop plant compatibility) (Oryza sativa (ORYSA); 1.25 g/ha): 0%; Post-emergence action against ORYSA (crop plant compatibility) (Oryza sativa (ORYSA); 5 g/ha): 0%
4 | COCCOC(=O)COc1ccc(F)cc1Oc1cc(-n2c(=O)cc(C(F)(F)F)n(C)c2=O)c(F)cc1Cl [I.23-1] | 100% | 100% | 100% | 100% | 100% | 80% | 80% | 100% | 100% | 80% | 100% | 100% | 80% | 100% | 100% | 90% | 100% | 100% | 100% | 100% | Post-emergence action against POLCO in % ([4]; dosage 1.25 g/ha): 90%; Post-emergence action against MATIN in % ([7]; dosage 5 g/ha): 80%; Post-emergence action against SETVI in % (Setaria viridis (SETVI); dosage 1.25 g/ha): 100%; Post-emergence action against SETVI in % (Setaria viridis (SETVI); dosage 5 g/ha): 100%; Post-emergence action against TRZAS (crop plant compatibility) ([8]; 1.25 g/ha): 20%; Post-emergence action against ZEAMX (crop plant compatibility) (Zea mays (ZEAMX)): 20%; Post-emergence action against ORYSA (crop plant compatibility) (Oryza sativa (ORYSA); 1.25 g/ha): 0%
5 | Cn1c(C(F)(F)F)cc(=O)n(-c2cc(Oc3cc(F)ccc3OCC(=O)OCC#N)c(Cl)cc2F)c1=O [I.23-176] | 80% | 100% | 100% | 100% | 100% | 90% | 100% | 100% | 100% | 100% | 100% | 100% | 90% | 100% | 100% | 100% | 100% | 100% | 80% | 100% | Post-emergence action at 1.25 g/ha against AMARE in % [2]: 100%; Post-emergence action against PHBPU in % ([3]; dosage 1.25 g/ha): 90%; Post-emergence action against SETVI in % (Setaria viridis (SETVI); dosage 1.25 g/ha): 100%; Post-emergence action against SETVI in % (Setaria viridis (SETVI); dosage 5 g/ha): 100%; Post-emergence action against TRZAS (crop plant compatibility) ([8]; 1.25 g/ha): 10%; Post-emergence action against ZEAMX (crop plant compatibility) (Zea mays (ZEAMX)): 20%; Post-emergence action against ORYSA (crop plant compatibility) (Oryza sativa (ORYSA); 1.25 g/ha): 0%; Post-emergence action against ORYSA (crop plant compatibility) (Oryza sativa (ORYSA); 5 g/ha): 20%
